Experimental data taken from BigSolDB 2.1.

CNC(=O)c1cc(Oc2ccc(NC(=O)Nc3ccc(Cl)c(C(F)(F)F)c3)c(F)c2)ccn1
solubility (mole fraction)
Details | 278.15 K | 283.15 K | 288.15 K | 293.15 K | 298.15 K | 303.15 K | 308.15 K | 313.15 K
in acetone | 0.0014 | 0.00173 | 0.00199 | 0.00247 | 0.00323 | 0.00375 | 0.00443 | 0.00526
in acetonitrile | 0.00014 | 0.000162 | 0.000168 | 0.000203 | 0.000248 | 0.000299 | 0.000381 | 0.000492
in ethanol | 0.000641 | 0.000677 | 0.000739 | 0.000865 | 0.000911 | 0.0011 | 0.00126 | 0.00145
in isopropanol | 0.000657 | 0.000679 | 0.000698 | 0.000769 | 0.000918 | 0.00109 | 0.00137 | 0.00161
in methanol | 0.000315 | 0.000351 | 0.00041 | 0.000422 | 0.000475 | 0.000581 | 0.000689 | 0.000797
in n-propanol | 0.000701 | 0.000769 | 0.000814 | 0.000908 | 0.00099 | 0.0012 | 0.00147 | 0.00172
